According to paper PMC3231940, “Disposition, metabolism and mass balance of [^14C]apremilast following oral administration” (Xenobiotica; the Fate of Foreign Compounds in Biological …, 2011):
Several values for one entry are separate records, joined by “and”; a condition that tells them apart may be missing. Identical values can stand only once.

Test: Metabolite profiling by HPLC radiochromatography in plasma, urine and faeces
Format: in vivo, human
Conditions: for % of dose excreted, faeces: faeces collected up to 96-h post-dose; for Plasma (% AUC relative to TRA); share of circulating radioactivity: AUC0-t (unchanged drug or metabolite)/AUC0-48 (TRA) * 100%; for Plasma Cmax: plasma radioactivity concentrations and radiochromatography; for % of dose excreted, urine: urine collected up to 48-h post-dose
Procedure: Individual plasma samples collected from all subjects at 0.5, 1, 2.5, 8, 24, 36 and 48 h post-dose were analysed for metabolite profiling. A pooled sample (equal volume from 0.5,1,2.5,8 and 24 h) from subject 1 was also used for metabolite profiling. Three volumes of acetonitrile were added to each sample, followed by mixing and centrifu-gation. The supernatant was removed and the pellet was washed twice with acetonitrile. The combined superna-tants were evaporated to dryness under a stream of nitrogen. The residues were re-suspended in acetonitrile: 1% formic acid in water (1:1), assayed for extraction recovery and analysed for metabolite profiling.
For each subject, urine samples were pooled using an equal percentage by volume of the 0-4, 4-8, 8-12 and 12-24-h samples. The 24-48-h urine sample from each subject and a pool of the 0-168-h urine samples from subject 1 were also analysed for metabolite profiling. Samples were mixed and centrifuged prior to the supernatants being transferred to fresh tubes for metabolite profiling analysis.
Faecal homogenates for metabolite profiling were pooled using an equal percentage by weight to generate two pools (0-48 h and 48-96 h) for each subject. An additional pool (0-168 h) was prepared using the samples collected from subject 1. An aliquot (approximately 6 g) of each pool was extracted with three volumes of acetonitrile; samples were mixed and centrifuged. The supernatant was removed and the pellets were extracted twice with an additional 12 mL of acetonitrile each time. The combined supernatants were evaporated to dryness under a stream of nitrogen and the residue was re-suspended in a small volume (approximately 400 μL) of acetonitrile: 1% formic acid in water (1:1). Samples were assayed for extraction recovery prior to metabolite profiling.
HPLC analysis for metabolite profiling was performed using a Shimadzu LC-10ADVP (Shimadzu Corp., Columbia, MD) or a Waters 2695 Alliance Separation Module (Waters Corp., Milford, MA) with the autosampler set to an ambient temperature of approximately 22°C. ASPD-10A VPUV-Vis Detector or a Waters 996 Photodiode array detector set to 254 nm was used to detect UV absorbance. [^14C]Apremilast and metabolites were separated using a Phenomenex Luna C 18(2) column (150 × 4.6 mm, 3 μm; Phenomenex, Torrance, CA) equipped with a RP-18 guard column (15×3.2 mm, 7 μm) or using an ACE 3 C18 column (150 × 4.6 mm, 3 μm; Advanced Chromatography Technologies, Aberdeen, Scotland) equipped with an ACE 3 guard column (10×3mm, 3 μm). The mobile phases used were 0.4% formic acid in water; pH 3.2 with ammonium hydroxide (mobile phase A) and acetonitrile (mobile phase B). The column temperature was 30°C and the flow rate was 0.7mL/min. The linear gradient was delivered as follows: 0-5 min to 100% A; 5-20 min to 85% A; 20-30 min hold at 85% A; 30-50 min to 65% A; 50-60 min to 60% A; 60-70 min to 50% A; 70-75 min to 0% A; hold at 0% A until 80 min; return to initial conditions over 2 min.
Radioactivity profiles for excreta were determined by radiochromatography using liquid chromatography-accurate radioisotope counting stop-flow system (LC-ARC; AIM Research Company, Wilmington, DE). Radioactivity was detected using a β-Ram Radioflow detector (IN/US Systems, Brandon, FL) equipped with a 1300-μL liquid cell. Liquid scintillation cocktail and column eluate were mixed at a ratio of 2.5:1. Radioactive peaks were quantified using LC-ARC data handling software. Plasma radioactivity profiles were determined by collecting the column eluate into 96-well Deepwell LumaPlates at a rate of 0.25 min/fraction. The plates were dried and the radioactivity in each well determined using a PerkinElmer TopCount NXT Microplate Scintillation Counter. HPLC radiochromatograms were reconstructed using LC-ARC data handling software.
Pharmacokinetic data were generated by non-compartmental analysis of plasma or whole blood versus time profiles using WinNonlin (version 4.1, Enterprise Edition). […]

[1] = single oral 20-mg dose, mean ± SD
[2] = radiochromatography, single oral 20-mg dose, mean ± SD

CCOc1cc([C@@H](CS(C)(=O)=O)N2C(=O)c3cccc(N)c3C2=O)ccc1O [Metabolite M4, N-deacetylated, O-desmethyl apremilast]
% of dose excreted, faeces: 2.4 % of dose

CCOc1cc([C@@H](CS(C)(=O)=O)NC(=O)c2cccc(NC(C)=O)c2C(=O)O)ccc1O [Metabolite M9]
% of dose excreted, faeces: 8 % of dose and 7.7 % of dose | Share of the excreted radioactivity / excreted dose (urine plus faeces): > 4%

CCOc1cc([C@@H](CS(C)(=O)=O)N2C(=O)c3cccc(NC(=O)CO)c3C2=O)ccc1O [Metabolite M10, acetamide hydroxylated, O-desmethyl apremilast]
% of dose excreted, faeces: 1.3 % of dose

COc1ccc([C@@H](CS(C)(=O)=O)N2C(=O)c3cccc(NC(C)=O)c3C2=O)cc1OC1OC(C(=O)O)C(O)C(O)C1O (some centres unmarked) [Metabolite M13]
Plasma (% AUC relative to TRA); share of circulating radioactivity: 2.4% | Tmax (male, human, plasma, radiochromatography, single oral 20-mg dose, median and range): 2.5 h | Plasma Cmax [1]: 7.5±6.8 ngEq/mL | Plasma AUC0-t [2]: 133±125 ngEq*h/mL | % of dose excreted, urine: 2.0 % of dose

CCOc1cc([C@@H](CS(C)(=O)=O)NC(=O)c2cccc(NC(C)=O)c2C(=O)O)ccc1OC1OC(C(=O)O)C(O)C(O)C1O (some centres unmarked) [Metabolite M15]
% of dose excreted, urine: 3.3 % of dose

CC(=O)Nc1cccc(C(=O)O)c1C(=O)O [Metabolite M18, 3-acetamide-phthalic acid]
% of dose excreted, faeces: 1.4 % of dose

CC(=O)Nc1cccc2c1C(=O)N([C@H](CS(C)(=O)=O)c1ccc(O)c(O)c1)C2=O [Metabolite M19, O-desmethyl, O-desethyl apremilast]
% of dose excreted, faeces: 0.8 % of dose

CS(=O)(=O)C[C@H](c1ccc(O)c(O)c1)N1C(=O)c2cccc(N)c2C1=O [Metabolite M20, N-deacetylated, O-desmethyl, O-desethyl apremilast]
% of dose excreted, faeces: 0.5 % of dose

COc1ccc([C@@H](CS(C)(=O)=O)NC(=O)c2cccc(NC(C)=O)c2C(=O)O)cc1O [Metabolite M22]
% of dose excreted, faeces: 0.6 % of dose

O=C(CO)Nc1cccc(C(=O)O)c1C(=O)O [Metabolite M23, hydroxy 3-acetamide-phthalic acid]
% of dose excreted, faeces: 3.0 % of dose

hydroxylated N-deacetylated apremilast [Metabolite M11]
Plasma (% AUC relative to TRA); share of circulating radioactivity: 2.5% | % of dose excreted, faeces: 1.4 % of dose | Plasma Cmax [1]: 20.2±7.6 ngEq/mL | Plasma AUC0-t [2]: 139±89 ngEq*h/mL | Plasma AUC0-∞ [2]: 232±151 ngEq*h/mL | Plasma t½ [2]: 10.7 ± 10.2 h | Plasma Tmax (radiochromatography, single oral 20-mg dose, median and range): 1.0(0.5-2.5) h

hydroxylated N-deacetylated, O-desmethyl apremilast [Metabolite M8]
% of dose excreted, faeces: 1.0 % of dose
